# Assay results as given in patent US20230114241A1, “METHODS OF TREATING EPILEPSY USING THE SAME” (Trevena, Inc., priority 2019, published 2023).
# Biological target: human sphingosine-1-phosphate receptor 1 (S1P1) (Homo sapiens, UniProt P21453)
# Test: Inhibition of cAMP production (HTRF cAMP HiRange), S1P1 CHO-K1 cells
# Type: cell-based
# Settings: inhibition of cAMP production; potency; read-out: hS1P1 CAMP pEC50 (converted)
# Method in brief: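 Intracellular cAMP changes read by TR-FRET (HTRF HiRange, 1 h room temperature) after 30 min compound exposure at 37 °C. Cells: overnight-plated CHO-K1 stably expressing tagged human S1P1 with EA-β-arrestin2. Responses normalized to fingolimod.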
# Sequence of human sphingosine-1-phosphate receptor 1 (S1P1) (P21453 whole entry): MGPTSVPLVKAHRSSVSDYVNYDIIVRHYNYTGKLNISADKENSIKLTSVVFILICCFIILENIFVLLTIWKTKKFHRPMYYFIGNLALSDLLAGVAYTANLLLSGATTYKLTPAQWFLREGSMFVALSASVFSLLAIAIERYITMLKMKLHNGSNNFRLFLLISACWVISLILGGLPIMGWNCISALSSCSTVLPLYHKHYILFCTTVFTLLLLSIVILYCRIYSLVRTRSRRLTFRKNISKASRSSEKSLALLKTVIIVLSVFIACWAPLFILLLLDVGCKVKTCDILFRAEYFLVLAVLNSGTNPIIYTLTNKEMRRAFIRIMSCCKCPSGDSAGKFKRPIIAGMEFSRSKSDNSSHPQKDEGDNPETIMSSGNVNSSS
row,Compound,EC50
1,"CCC1(CC)CC(=O)c2cc(-c3nc(-c4ccc(C)cc4)no3)ccc2O1 [Compound 269, 2,2-diethyl-6-[3-(p-tolyl)-1,2,4-oxadiazol-5-yl]chroman-4-one]",> 0.316 µM
2,"CC1(C)CC(=O)c2cc(-c3nc(-c4cccnc4)no3)ccc2O1 [Compound 274, 2,2-dimethyl-6-[3-(pyridin-3-yl)-1,2,4-oxadiazol-5-yl]-3,4-dihydro-2H-1-benzopyran-4-one]",> 0.316 µM
3,"COc1ccccc1-c1coc(-c2ccc3c(c2)nnn3C(C)C)n1 [Compound 277, 5-[4-(2-methoxy-phenyl)-1,3-oxazol-2-yl]-1-(propan-2-yl)-1H-1,2,3-benzotriazole]",< 0.316 µM
4,"CC(C)n1nnc2cc(-c3noc(-c4ccccc4C#N)n3)ccc21 [Compound 279, 2-(3-(1-isopropyl-1H-benzo[d][1,2,3]triazol-5-yl)-1,2,4-oxadiazol-5-yl)benzonitrile]",> 0.316 µM
5,"O=C1CC2(CCCCC2)Oc2ccc(-c3nc(-c4ccncc4)no3)cc21 [Compound 280, 6-[3-(pyridin-4-yl)-1,2,4-oxadiazol-5-yl]-3,4-dihydrospiro[1-benzopyran-2,1′-cyclohexane]-4-one]",> 0.316 µM
6,"CC(C)n1nnc2cc(-c3nc(-c4ccccc4Br)no3)ccc21 [Compound 282, 5-[3-(2-bromophenyl)-1,2,4-oxadiazol-5-yl]-1-(propan-2-yl)-1H-1,2,3-benzotriazole]",< 0.316 µM
7,"Brc1ccccc1-c1nc(-c2ccc3c(c2)nnn3Cc2cccnc2)no1 [Compound 283, 5-(2-bromophenyl)-3-(1-(pyridin-3-ylmethyl)-1H-benzo[d][1,2,3]triazol-5-yl)-1,2,4-oxadiazole]",> 0.316 µM
8,"CC1(C)CC(=O)c2cc(-c3nc(-c4ccncc4)no3)ccc2O1 [Compound 291, 2,2-dimethyl-6-[3-(pyridin-4-yl)-1,2,4-oxadiazol-5-yl]-3,4-dihydro-2H-1-benzopy ran-4-one]",> 0.316 µM
9,"CC(C)n1nnc2cc(-c3nc(-c4ccccc4)co3)ccc21 [Compound 294, 5-(4-phenyl-1,3-oxazol-2-yl)-1-(propan-2-yl)-1H-1,2,3-benzotriazole]",> 0.316 µM
10,"CCC1(CC)CC(=O)c2cc(-c3nc(-c4ccc(OC)nc4)no3)ccc2O1 [Compound 301, 2,2-diethyl-6-[3-(6-methoxy-3-pyridyl)-1,2,4-oxadiazol-5-yl]chroman-4-one]",> 0.316 µM
11,"N#Cc1cc(-c2nc(-c3ccc4c(c3)CCC(=O)N4)no2)ccc1NCC1CC1 [Compound 302, 2-((cyclopropyl-methyl)amino)-5-(3-(2-oxo-1,2,3,4-tetrahydroquinolin-6-yl)-1,2,4-oxadiazol-5-yl)benzonitrile]",< 0.316 µM
12,"CCC1(CC)CC(=O)c2cc(-c3nc(-c4cnccc4OC)no3)ccc2O1 [Compound 303, 2,2-diethyl-6-(3-(4-methoxypyridin-3-yl)-1,2,4-oxadiazol-5-yl)chroman-4-one]",> 0.316 µM
13,"CC(C)n1nnc2cc(-c3noc(-c4ccccc4F)n3)ccc21 [Compound 307, 5-(2-fluorophenyl)-3-(1-isopropyl-1H-benzo[d][1,2,3]triazol-5-yl)-1,2,4-oxadiazole]",< 0.316 µM
14,"Cc1ccccc1-c1noc(-c2ccc3nnn(C(C)C)c3c2)n1 [Compound 308, 6-[3-(2-methylphenyl)-1,2,4-oxadiazol-5-yl]-1-(propan-2-yl)-1H-1,2,3-benzotriazole]",> 0.316 µM
15,"CCC1(CC)CC(=O)c2cc(-c3nc(-c4cccnc4)ns3)ccc2O1 [Compound 309, 2,2-diethyl-6-(3-(pyridin-3-yl)-1,2,4-thiadiazol-5-yl)chroman-4-one]",> 0.316 µM
16,"CCC1(CC)CC(=O)c2cc(-c3nc(-c4cncc(O)c4)no3)ccc2O1 [Compound 310, 2,2-diethyl-6-[3-(5-hydroxy-3-pyridyl)-1,2,4-oxadiazol-5-yl]chroman-4-one]",< 0.316 µM
17,"CCC1(CC)CC(=O)c2cc(-c3nc(-c4ccncc4O)no3)ccc2O1 [Compound 312, 2,2-diethyl-6-(3-(3-hydroxypyridin-4-yl)-1,2,4-oxadiazol-5-yl)chroman-4-one]",> 0.316 µM
18,"CCC1(CC)CC(=O)c2cc(-c3nc(-c4ccncc4C(F)(F)F)no3)ccc2O1 [Compound 313, 2,2-diethyl-6-(3-(3-(trifluoromethyl)pyridin-4-yl)-1,2,4-oxadiazol-5-yl)chroman-4-one]",< 0.316 µM
19,"CCC1(CC)CC(=O)c2cc(-c3nc(-c4ccnc(C(F)(F)F)c4)no3)ccc2O1 [Compound 314, 2,2-diethyl-6-(3-(2-(trifluoromethyl)pyridin-4-yl)-1,2,4-oxadiazol-5-yl)chroman-4-one]",> 0.316 µM
20,"CCC1(CC)CC(=O)c2cc(-c3nc(-c4ccnc(C)c4)no3)ccc2O1 [Compound 315, 2,2-diethyl-6-(3-(2-methylpyridin-4-yl)-1,2,4-oxadiazol-5-yl)chroman-4-one]",< 0.316 µM
21,"CC(=O)Nc1ccc(-c2noc(-c3ccc(NC(C)C)c(C#N)c3)n2)cc1 [Compound 316, N-(4-(5-(3-cyano-4-(isopropylamino)phenyl)-1,2,4-oxadiazol-3-yl)phenyl)acetamide]",< 0.316 µM
22,"CC(C)n1ccc2cc(-c3nc(-c4ccccc4Cl)no3)ccc21 [Compound 320, 3-(2-chlorophenyl)-5-(1-isopropyl-1H-indol-5-yl)-1,2,4-oxadiazole]",< 0.316 µM
23,"CC(C)n1ccc2cc(-c3nc(-c4ccccc4OC(F)(F)F)no3)ccc21 [Compound 321, 5-(1-isopropyl-1H-indol-5-yl)-3-(2-(trifluoro-methoxy)phenyl)-1,2,4-oxadiazole]",> 0.316 µM
24,"CC(C)n1ccc2cc(-c3nc(-c4ccccc4Br)no3)ccc21 [Compound 322, 3-(2-bromophenyl)-5-(1-isopropyl-1H-indol-5-yl)-1,2,4-oxadiazole]",< 0.316 µM
25,"CC(C)n1ccc2cc(-c3nc(-c4ccccc4O)no3)ccc21 [Compound 323, 2-(5-(1-isopropyl-1H-indol-5-yl)-1,2,4-oxadiazol-3-yl)phenol]",> 0.316 µM
26,"CC(C)Oc1ccccc1-c1noc(-c2ccc3c(ccn3C(C)C)c2)n1 [Compound 324, 3-(2-isopropoxyphenyl)-5-(1-isopropyl-1H-indol-5-yl)-1,2,4-oxadiazole]",> 0.316 µM
27,"COc1cccc(OC)c1-c1noc(-c2ccc3c(ccn3C(C)C)c2)n1 [Compound 325, 3-(2,6-dimethoxy-phenyl)-5-(1-isopropyl-indol-5-yl)-1,2,4-oxadiazole]",> 0.316 µM
28,"CC(C)n1ccc2cc(-c3nc(-c4cccc5c4OCO5)no3)ccc21 [Compound 326, 3-(benzo[d][1,3]dioxol-4-yl)-5-(1-isopropyl-1H-indol-5-yl)-1,2,4-oxadiazole]",> 0.316 µM
29,"Cc1ccccc1-c1noc(-c2ccc3c(cnn3C(C)C)c2)n1 [Compound 329, 5-(1-isopropyl-1H-indazol-5-yl)-3-(o-tolyl)-1,2,4-oxadiazole]",< 0.316 µM

# Continued, values first:
row,EC50,Compound
1,> 0.316 µM,"CC(C)CCn1nnc2cc(-c3nc(-c4ccccc4)no3)ccc21 [Compound 271, 1-(3-methylbutyl)-5-(3-phenyl-1,2,4-oxadiazol-5-yl)-1H-1,2,3-benzotriazole]"
2,> 0.316 µM,"COc1cncc(-c2nc(-c3ccc4c(c3)nnn4C(C)C)no2)c1 [Compound 272, 3-(1-isopropyl-1H-benzo[d][1,2,3]triazol-5-yl)-5-(5-methoxy-pyridin-3-yl)-1,2,4-oxadiazole]"
3,> 0.316 µM,"COc1ccc(-c2nc(-c3ccc4c(c3)nnn4C3CCCC3)no2)cc1OC [Compound 275, 3-(1-cyclopentyl-1H-benzo[d][1,2,3]triazol-5-yl)-5-(3,4-dimethoxyphenyl)-1,2,4-oxadiazole]"
4,> 0.316 µM,"COc1cc(-c2noc(-c3ccc4c(c3)nnn4C3CCCC3)n2)ccn1 [Compound 281, 1-cyclopentyl-5-[3-(2-methoxypyridin-4-yl)-1,2,4-oxadiazol-5-yl]-1H-1,2,3-benzotriazole]"
5,> 0.316 µM,"COc1ccc(-c2noc(-c3ccc4c(c3)nnn4C3CCCCC3)n2)cc1C(F)(F)F [Compound 284, 1-cyclohexyl-5-{3-[4-methoxy-3-(trifluoro-methyl)phenyl]-1,2,4-oxadiazol-5-yl}-1H-1,2,3-benzotriazole]"
6,> 0.316 µM,"c1ccc(Oc2ccc(-c3noc(-c4ccc5c(c4)nnn5C4CC4)n3)cc2)cc1 [Compound 285, 1-cyclopropyl-5-[3-(4-phenoxyphenyl)-1,2,4-oxadiazol-5-yl]-1H-1,2,3-benzotriazole]"
7,< 0.316 µM,"COc1ccccc1-c1noc(-c2ccc3c(c2)nnn3C(C)C)n1 [Compound 286, 5-(1-isopropyl-1H-benzo[d][1,2,3]triazol-5-yl)-3-(2-methoxy-phenyl)-1,2,4-oxadiazole]"
8,> 0.316 µM,"Cc1ccccc1-c1noc(-c2ccc3c(c2)nnn3CC2CC2)n1 [Compound 288, 1-(cyclopropylmethyl)-5-[3-(2-methylphenyl)-1,2,4-oxadiazol-5-yl]-1H-1,2,3-benzotriazole]"
9,> 0.316 µM,"CC(C)n1nnc2cc(-c3noc(-c4ccc(C5CCCCC5)cc4)n3)ccc21 [Compound 290, 5-(4-cyclohexylphenyl)-3-(1-isopropyl-1H-benzo[d][1,2,3]triazol-5-yl)-1,2,4-oxadiazole]"
10,> 0.316 µM,"c1ccc(-c2noc(-c3ccc4c(c3)nnn4C3CCCCC3)n2)cc1 [Compound 292, 1-cyclohexyl-5-(3-phenyl-1,2,4-oxadiazol-5-yl)-1H-1,2,3-benzotriazole]"
11,> 0.316 µM,"c1cc(-c2noc(-c3ccc4c(c3)nnn4C3CC3)n2)ccn1 [Compound 295, 1-cyclopropyl-5-[3-(pyridin-4-yl)-1,2,4-oxadiazol-5-yl]-1H-1,2,3-benzotriazole]"
12,> 0.316 µM,"CC(C)n1nnc2cc(-c3nc(-c4ccc(OCc5ccccc5)c(C(F)(F)F)c4)no3)ccc21 [Compound 296, 5-{3-[4-(benzyloxy)-3-(trifluoromethyl)phenyl]-1,2,4-oxadiazol-5-yl}-1-(propan-2-yl)-1H-1,2,3-benzotriazole]"
13,> 0.316 µM,"COc1cccc(-c2nc(-c3ccc4c(c3)nnn4C(C)C)no2)c1 [Compound 299, 3-(1-isopropylbenzo-triazol-5-yl)-5-(3-methoxyphenyl)-1,2,4-oxadiazole]"
